From patent US20030229053A1, “Compounds and methods for the treatment or prevention of flavivirus infections” (Shire BioChem Inc., priority 2001, published 2003)

What follows are compounds tested against HCV NS5B RNA-dependent RNA polymerase (Hepatitis C virus genotype 1b, UniProt P26663) (assay: In vitro RNA-dependent RNA polymerase assay (Assay 1), polyA/oligo dT, TCA precipitation). Conditions: not given.
Format: biochemical
Method: Purification of Recombinant NS5B Using Fast Protein Liquid Chromatography (FPLC):
Soluble NS5B protein in the S3 fraction was diluted to lower the NaCl concentration to 300 mM, then it incubated batchwise with DEAE sepharose beads (Amersham-Pharmacia) for 2 hrs at 4° C., as described by Behrens et al. (1996). Unbound material was cleared by centrifugation for 15 min at 4° C., at 25,000 rpm using a SW41 rotor (Beckman). The supernatant was further diluted to lower the NaCl concentration to 200 mM and subsequently loaded, with a flow rate of 1 ml/min, on a 5 ml HiTrap® heparin column (Amersham-Pharmacia) connected to an FPLC® system (Amersham-Pharmacia). Bound proteins were eluted in 1 ml fractions, using a continuous NaCl gradient of 0.2 to 1 M, over a 25 ml volume. NS5B-containing fractions were identified by sodium dodecyl sulfate polyacrylamide gel electrophoresis (SDS-PAGE), followed by western blotting using the anti-NS5B antiserum at a dilution of 1:2000. Positive fractions were pooled and the elution buffer was exchanged against a 50 mM NaPO4 pH 7.0, 20% glycerol, 0.5% triton X-100 and 10 mM DTT, using a PD-10 column (Amersham-Pharmacia). The sample was then loaded onto a 1 ml HiTrap® SP column (Amersham-Pharmacia), with a flow rate of 0.1 ml/min. Bound proteins were eluted using a continuous 0 to 1 M NaCl gradient over a 15 ml volume. Eluted fractions were analyzed by SDS-PAGE and western blotting. Alternatively, proteins were visualized, following SDS-PAGE, by silver staining using the Silver Stain Plus kit (BioRad) as described by the manufacturer. […]
In vitro RNA-dependent RNA Polymerase Assays Used to Evaluate Biaryl Analogues (Assay 1):
RdRp assays were conducted using the homopolymeric template/primer polyA/oligo dT. All RdRp reactions were performed in a total volume of 50 μl, and in a basic buffer consisting of 20 mM Tris-HCl pH 7.5, 1 mM DTT, 50 mM NaCl, 5 mM MgCl2, 0.5 μCi […] (3000 Ci/mmol), 15 μM cold UTP and 20 U RNasin (Promega). Standard HCV RdRp reactions contained 200 ng of purified NS5B protein. PolyA RNAs (Amersham-Pharmacia) was resuspended at 400 ng/μl. The primer oligodT15 (Canadian life technologies) was diluted to a concentration of […] (7.6 ng/μl). Templates and primers were mixed volume to volume, denatured at 95° C. for 5 min and annealed at 37° C. for 10 min. Following a two hour incubation at 22° C., reactions were stopped by the addition of 100 μg of sonicated salmon sperm DNA (Life Technologies) and 1 ml of 10% trichloroacetic acid-0.5% tetrasodium pyrophosphate (TCA-PPi). Nucleic acids were precipitated at 4° C. for 30 min after which samples were filtered on GF/C glass microfiber filters (Millipore). Membranes were subsequently washed with 25 ml of a 1% TCA-0.1% PPi solution, then air dried. Incorporated radioactivity was quantified using a liquid scintillation counter (1450-Microbeta, Wallac). Results are shown in Table 1, in the column indicated as Assay 1.

Chain of HCV NS5B RNA-dependent RNA polymerase (P26663 2420-3010 limits assumed): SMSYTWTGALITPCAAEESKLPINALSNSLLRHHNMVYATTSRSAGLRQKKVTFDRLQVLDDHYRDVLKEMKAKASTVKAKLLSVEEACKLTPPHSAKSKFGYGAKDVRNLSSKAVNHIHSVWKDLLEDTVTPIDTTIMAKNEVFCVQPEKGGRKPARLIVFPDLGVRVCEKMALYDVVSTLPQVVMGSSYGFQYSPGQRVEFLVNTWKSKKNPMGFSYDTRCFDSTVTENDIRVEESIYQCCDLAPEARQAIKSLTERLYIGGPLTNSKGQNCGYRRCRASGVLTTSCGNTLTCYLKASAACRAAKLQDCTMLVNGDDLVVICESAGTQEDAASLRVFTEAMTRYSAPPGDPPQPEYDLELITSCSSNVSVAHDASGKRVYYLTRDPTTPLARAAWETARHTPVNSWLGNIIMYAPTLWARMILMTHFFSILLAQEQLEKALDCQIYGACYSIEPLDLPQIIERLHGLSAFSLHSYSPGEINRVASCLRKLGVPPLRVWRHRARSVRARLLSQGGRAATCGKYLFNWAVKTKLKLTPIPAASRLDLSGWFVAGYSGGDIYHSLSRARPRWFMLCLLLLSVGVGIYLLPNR

Row | Compound | IC50
1 | O=C(O)[C@H](Cc1ccccc1)N(Cc1cccc(Br)c1)C(=O)c1ccc(Cl)cc1Cl [compound #9, (2s)-2-[(3-Bromo-benzyl)-(2,4-dichloro-benzoyl)-amino]-3-phenyl-propionic acid] | < 5 µM

Same assay, conditions: polyA/oligo dT template/primer, 200 ng NS5B, 2 h at 22° C.; read-out: RNA pol Assay 1 IC50 (μm)

Row | Compound | IC50
2 | COc1cc(C)c(S(=O)(=O)N(Cc2ccc(-c3cc4ccccc4o3)cc2)C(Cc2ccccc2)C(=O)O)c(C)c1C (stereo in doubt) [compound #6, (2s)-2-[(4-Benzofuran-2-yl-benzyl)-(4-methoxy-2,3,6-trimethyl-benzenesulfonyl)-amino]-3-phenyl-propionic acid] | < 5 µM
3 | O=C(O)CC(c1cccs1)N(Cc1ccc(-c2cccs2)cc1)C(=O)Nc1cc(Cl)nc(Cl)c1 (centres unmarked) [compound #1, 3-[3-(2,6-Dichloro-pyridin-4-yl)-1-(4-thiophen-2-yl-benzyl)-ureido]-3-thiophen-2-yl-propionic acid] | 5 to 20 µM
4 | COc1cc(C)c(S(=O)(=O)N(Cc2ccc(-c3cc4ccccc4o3)cc2)[C@@H](Cc2ccccc2)C(=O)O)c(C)c1C [compound #5, (2s)-2-[(4-Benzofuran-2-yl-benzyl) -(4-methoxy-2,3,6-trimethyl-benzenesulfonyl)-amino]-3-phenyl-propionic acid] | < 5 µM
5 | COc1cc(C)c(S(=O)(=O)N(Cc2cccc(-c3cc4ccccc4o3)c2)[C@@H](Cc2ccccc2)C(=O)O)c(C)c1C [compound #7, (2s)-2-[(3-Benzofuran-2-yl-benzyl)-(4-methoxy-2,3,6-trimethyl-benzenesulfonyl)-amino]-3-phenyl-propionic acid] | < 5 µM
6 | CCOC(=O)CC(c1cccs1)N(Cc1ccc(I)cc1)S(=O)(=O)c1c(C)cc(OC)c(C)c1C (centres unmarked) [compound #8, 3-[(4-Iodo-benzyl)-(4-methoxy-2,3,6-trimethyl-benzenesulfonyl)-amino]-3-thiophen-2-yl-propionic acid ethyl ester] | 5 to 20 µM
7 | COc1cc(C)c(S(=O)(=O)N(Cc2cccc(I)c2)[C@@H](Cc2ccccc2)C(=O)O)c(C)c1C [compound #13, (2s)-2-[(3-Iodo-benzyl)-(4-methoxy-2,3,6-trimethyl-benzenesulfonyl)-amino]-3-phenyl-propionic acid] | 5 to 20 µM

More lines, now with the values ahead:

Row | IC50 | Compound
8 | < 5 µM | O=C(O)C(Cc1ccccc1)N(Cc1ccc(-c2cc3ccccc3o2)cc1)C(=O)c1ccc(Cl)cc1Cl (stereo in doubt) [compound #4, (2s)-2-[(4-Benzofuran-2-yl-benzyl)-(2,4-dichloro-benzoyl)-amino]-3-phenyl-propionic acid]
9 | 5 to 20 µM | C=CCN(C(=O)c1ccc(Cl)cc1I)C(Cc1ccccc1)C(=O)O (centres unmarked) [Compound #27, 2-[Allyl-(4-chloro-2-iodo-benzoyl)-amino]-3-phenyl-propionic acid]
10 | < 5 µM | O=C(O)[C@H](Cc1ccccc1)N(Cc1ccc(-c2nccs2)cc1)C(=O)c1ccc(Cl)cc1Cl [compound #2, (2s)-2-[(2,4-Dichloro-benzoyl)-(4-thiazol-2-yl-benzyl)-amino]-3-phenyl-propionic acid]
11 | < 5 µM | O=C(O)[C@H](Cc1ccccc1)N(Cc1ccc(Br)cc1)C(=O)c1ccc(Cl)cc1Cl [compound #3, (2s)-2-[(4-Bromo-benzyl)-(2,4-dichloro-benzoyl)-amino]-3-phenyl-propionic acid]
12 | > 20 µM | O=C(O)[C@H](Cc1ccccc1)N(Cc1cccc(Br)c1)C(=O)c1ccccc1Cl [compound #10, (2s)-2-[(3-Bromo-benzyl)-(2-chloro-benzoyl)-amino]-3-phenyl-propionic acid]
13 | 5 to 20 µM | O=C(O)[C@H](Cc1ccccc1)N(Cc1cccc(-c2cc3ccccc3o2)c1)C(=O)c1ccc(Cl)cc1Cl [compound #11, (2s)-2-[(3-Benzofuran-2-yl-benzyl)-(2,4-dichloro-benzoyl)-amino]-3-phenyl-propionic acid]
14 | 5 to 20 µM | O=C(O)[C@H](Cc1ccccc1)N(Cc1ccc(I)cc1)C(=O)c1ccc(Cl)cc1Cl [compound #12, (2s)-2-[(2,4-Dichloro-benzoyl)-(4-iodo-benzyl)-amino]-3-phenyl-propionic acid]
